# Legend:
# Experiment in all cases: FRET-based coupled-enzyme protein kinase inhibition assay
# Type in all cases: biochemical
# Conditions in all cases: compound at 10 µM, 1% DMSO
# [1] = biological target: PDGFRB (PDGFR beta) (Homo sapiens, UniProt P09619)
# Summary of the method: (§1)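 Inhibition was quantified ratiometrically, as coumarin over fluorescein emission following 400 nm excitation, on a doubly labeled peptide whose cleavage by development reagent requires it to remain unphosphorylated. Kinase reactions ran 60 min at room temperature with ATP at apparent Km.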
# [2] = biological target: BTK (Homo sapiens, UniProt Q06187)
# BTK, sequence (Q06187 whole entry, species assumed): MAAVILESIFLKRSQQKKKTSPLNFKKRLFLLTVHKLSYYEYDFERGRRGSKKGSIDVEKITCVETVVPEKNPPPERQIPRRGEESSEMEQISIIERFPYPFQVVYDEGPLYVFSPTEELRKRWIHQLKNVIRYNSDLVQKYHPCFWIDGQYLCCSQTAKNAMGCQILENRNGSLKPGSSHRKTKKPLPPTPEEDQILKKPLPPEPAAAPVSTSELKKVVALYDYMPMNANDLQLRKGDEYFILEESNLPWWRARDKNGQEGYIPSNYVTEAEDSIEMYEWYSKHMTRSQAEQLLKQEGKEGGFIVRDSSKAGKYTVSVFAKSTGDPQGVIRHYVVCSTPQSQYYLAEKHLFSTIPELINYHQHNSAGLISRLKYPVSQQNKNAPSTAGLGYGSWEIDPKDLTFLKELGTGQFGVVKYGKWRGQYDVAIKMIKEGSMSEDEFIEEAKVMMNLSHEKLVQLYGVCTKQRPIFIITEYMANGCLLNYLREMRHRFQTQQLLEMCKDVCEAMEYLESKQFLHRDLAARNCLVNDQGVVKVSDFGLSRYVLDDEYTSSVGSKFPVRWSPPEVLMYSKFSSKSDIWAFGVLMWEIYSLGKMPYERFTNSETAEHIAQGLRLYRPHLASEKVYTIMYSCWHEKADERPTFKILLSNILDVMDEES
# Summary of the method: as §1
# [3] = biological target: FRAP1 (mTOR) (Homo sapiens, UniProt P42345)
# Summary of the method: as §1
# [4] = biological target: MARK2 (Homo sapiens, UniProt Q7KZI7)
# MARK2, sequence (Q7KZI7 whole entry, species assumed): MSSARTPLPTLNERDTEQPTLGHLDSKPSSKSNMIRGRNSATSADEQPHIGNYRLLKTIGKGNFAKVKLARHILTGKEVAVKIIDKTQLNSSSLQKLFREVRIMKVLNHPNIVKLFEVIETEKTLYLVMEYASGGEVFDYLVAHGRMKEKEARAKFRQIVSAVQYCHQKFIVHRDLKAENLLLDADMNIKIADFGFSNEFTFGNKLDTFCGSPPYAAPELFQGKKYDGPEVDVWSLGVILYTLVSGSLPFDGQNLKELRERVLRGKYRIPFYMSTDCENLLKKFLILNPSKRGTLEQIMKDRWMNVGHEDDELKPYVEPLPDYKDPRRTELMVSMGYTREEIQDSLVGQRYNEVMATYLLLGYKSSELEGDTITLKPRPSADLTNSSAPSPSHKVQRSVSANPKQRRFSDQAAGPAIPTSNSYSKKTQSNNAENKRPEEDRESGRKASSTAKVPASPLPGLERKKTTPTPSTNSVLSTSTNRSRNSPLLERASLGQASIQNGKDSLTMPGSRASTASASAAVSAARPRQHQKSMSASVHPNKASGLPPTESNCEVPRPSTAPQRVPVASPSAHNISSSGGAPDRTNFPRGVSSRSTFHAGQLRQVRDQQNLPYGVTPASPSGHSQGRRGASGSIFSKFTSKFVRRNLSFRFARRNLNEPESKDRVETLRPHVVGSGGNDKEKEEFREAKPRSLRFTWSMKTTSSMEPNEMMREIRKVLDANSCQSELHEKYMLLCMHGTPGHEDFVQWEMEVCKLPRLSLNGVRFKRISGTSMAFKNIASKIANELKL
# Summary of the method: as §1
# [5] = biological target: PRKACA (PKA) (Homo sapiens, UniProt P17612)
# Summary of the method: as §1
# [6] = biological target: AKT1 (PKB alpha) (Homo sapiens, UniProt P31749)
# AKT1 (PKB alpha), sequence (P31749 whole entry, species assumed): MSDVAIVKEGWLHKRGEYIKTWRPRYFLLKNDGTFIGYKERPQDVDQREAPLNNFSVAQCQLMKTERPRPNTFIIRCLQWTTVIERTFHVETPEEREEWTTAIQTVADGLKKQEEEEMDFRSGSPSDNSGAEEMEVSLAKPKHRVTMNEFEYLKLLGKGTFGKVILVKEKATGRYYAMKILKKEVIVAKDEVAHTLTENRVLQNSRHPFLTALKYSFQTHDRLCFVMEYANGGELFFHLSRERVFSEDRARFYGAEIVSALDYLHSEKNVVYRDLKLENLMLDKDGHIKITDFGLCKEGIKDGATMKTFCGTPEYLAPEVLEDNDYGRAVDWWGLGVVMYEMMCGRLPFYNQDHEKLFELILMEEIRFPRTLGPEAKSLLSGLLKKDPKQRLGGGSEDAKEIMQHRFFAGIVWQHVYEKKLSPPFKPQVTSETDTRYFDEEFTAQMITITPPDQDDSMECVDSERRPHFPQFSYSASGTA
# Summary of the method: as §1
# [7] = biological target: CSNK2A1 (CK2 alpha 1) (Homo sapiens, UniProt P68400)
# Summary of the method: as §1
# [8] = biological target: PAK4 (Homo sapiens, UniProt O96013)
# PAK4, sequence (O96013 whole entry, species assumed): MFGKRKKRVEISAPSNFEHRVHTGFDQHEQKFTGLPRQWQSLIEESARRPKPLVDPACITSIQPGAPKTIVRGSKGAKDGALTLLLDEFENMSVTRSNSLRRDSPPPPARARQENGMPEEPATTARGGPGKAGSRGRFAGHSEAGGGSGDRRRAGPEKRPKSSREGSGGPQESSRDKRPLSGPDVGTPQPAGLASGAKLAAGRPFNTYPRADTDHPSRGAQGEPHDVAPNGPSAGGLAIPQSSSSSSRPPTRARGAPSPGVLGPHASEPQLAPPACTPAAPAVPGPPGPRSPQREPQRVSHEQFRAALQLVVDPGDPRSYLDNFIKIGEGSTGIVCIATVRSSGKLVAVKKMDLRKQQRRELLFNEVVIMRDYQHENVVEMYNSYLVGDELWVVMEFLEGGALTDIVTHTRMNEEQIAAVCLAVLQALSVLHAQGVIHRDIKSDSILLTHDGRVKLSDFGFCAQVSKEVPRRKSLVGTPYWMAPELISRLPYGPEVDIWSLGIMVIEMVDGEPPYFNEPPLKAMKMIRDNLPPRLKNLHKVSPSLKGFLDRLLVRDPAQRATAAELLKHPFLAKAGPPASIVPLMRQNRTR
# Summary of the method: as §1
# [9] = biological target: MAP4K4 (HGK) (Homo sapiens, UniProt O95819)
# Summary of the method: as §1
# [10] = biological target: ERBB2 (HER2) (Homo sapiens, UniProt P04626)
# Summary of the method: as §1
# [11] = biological target: CDK1/cyclin B (Homo sapiens, UniProt P06493)
# CDK1/cyclin B, sequence (P06493 whole entry, species assumed): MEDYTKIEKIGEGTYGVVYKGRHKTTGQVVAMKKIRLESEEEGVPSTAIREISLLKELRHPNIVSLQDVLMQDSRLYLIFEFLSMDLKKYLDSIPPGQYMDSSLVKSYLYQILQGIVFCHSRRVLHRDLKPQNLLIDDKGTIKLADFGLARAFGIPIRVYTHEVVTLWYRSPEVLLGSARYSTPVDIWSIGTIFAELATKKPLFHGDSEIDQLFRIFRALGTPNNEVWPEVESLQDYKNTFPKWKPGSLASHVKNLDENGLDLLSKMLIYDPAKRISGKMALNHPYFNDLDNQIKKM
# CDK1/cyclin B, sequence (P14635 whole entry partner, species assumed): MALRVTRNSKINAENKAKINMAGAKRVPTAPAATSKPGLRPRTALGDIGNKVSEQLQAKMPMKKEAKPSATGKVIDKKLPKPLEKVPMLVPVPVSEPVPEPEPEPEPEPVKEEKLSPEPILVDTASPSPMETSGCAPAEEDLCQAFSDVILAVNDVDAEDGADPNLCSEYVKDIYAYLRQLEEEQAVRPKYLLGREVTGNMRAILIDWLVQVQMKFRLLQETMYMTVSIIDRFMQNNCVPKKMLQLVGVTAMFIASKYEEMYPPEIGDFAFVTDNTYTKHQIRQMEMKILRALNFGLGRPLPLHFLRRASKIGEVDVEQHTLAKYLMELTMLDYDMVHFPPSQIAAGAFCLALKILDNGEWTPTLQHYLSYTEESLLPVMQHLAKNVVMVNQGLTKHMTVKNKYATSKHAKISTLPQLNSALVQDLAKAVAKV
# Summary of the method: as §1
# [12] = biological target: FGFR1 (Homo sapiens, UniProt P11362)
# FGFR1, sequence (P11362 22-822, species assumed): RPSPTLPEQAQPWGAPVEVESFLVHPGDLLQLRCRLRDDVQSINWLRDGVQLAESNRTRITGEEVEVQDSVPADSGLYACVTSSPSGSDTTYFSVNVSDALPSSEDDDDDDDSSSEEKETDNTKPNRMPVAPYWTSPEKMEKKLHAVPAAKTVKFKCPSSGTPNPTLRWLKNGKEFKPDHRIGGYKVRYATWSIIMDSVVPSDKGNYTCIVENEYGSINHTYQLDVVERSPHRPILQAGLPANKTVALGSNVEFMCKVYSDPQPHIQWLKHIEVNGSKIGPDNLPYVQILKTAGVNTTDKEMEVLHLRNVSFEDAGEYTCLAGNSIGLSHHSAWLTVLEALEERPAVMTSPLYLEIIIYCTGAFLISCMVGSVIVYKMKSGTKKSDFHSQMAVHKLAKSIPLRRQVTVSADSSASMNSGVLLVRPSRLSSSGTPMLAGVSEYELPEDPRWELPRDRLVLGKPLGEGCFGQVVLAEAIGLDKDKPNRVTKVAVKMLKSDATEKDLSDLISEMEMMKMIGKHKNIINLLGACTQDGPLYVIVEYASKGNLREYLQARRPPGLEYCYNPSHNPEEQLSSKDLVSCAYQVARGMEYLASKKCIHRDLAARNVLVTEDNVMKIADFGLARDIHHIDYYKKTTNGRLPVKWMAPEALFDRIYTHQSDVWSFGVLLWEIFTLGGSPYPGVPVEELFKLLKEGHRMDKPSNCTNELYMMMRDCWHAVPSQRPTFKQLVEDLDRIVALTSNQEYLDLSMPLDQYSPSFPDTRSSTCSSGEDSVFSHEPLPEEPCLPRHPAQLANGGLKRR
# Summary of the method: as §1
# [13] = biological target: T1, IKBKB (IKK beta) (Homo sapiens, UniProt O14920)
# T1 sequence (O14920 1-756): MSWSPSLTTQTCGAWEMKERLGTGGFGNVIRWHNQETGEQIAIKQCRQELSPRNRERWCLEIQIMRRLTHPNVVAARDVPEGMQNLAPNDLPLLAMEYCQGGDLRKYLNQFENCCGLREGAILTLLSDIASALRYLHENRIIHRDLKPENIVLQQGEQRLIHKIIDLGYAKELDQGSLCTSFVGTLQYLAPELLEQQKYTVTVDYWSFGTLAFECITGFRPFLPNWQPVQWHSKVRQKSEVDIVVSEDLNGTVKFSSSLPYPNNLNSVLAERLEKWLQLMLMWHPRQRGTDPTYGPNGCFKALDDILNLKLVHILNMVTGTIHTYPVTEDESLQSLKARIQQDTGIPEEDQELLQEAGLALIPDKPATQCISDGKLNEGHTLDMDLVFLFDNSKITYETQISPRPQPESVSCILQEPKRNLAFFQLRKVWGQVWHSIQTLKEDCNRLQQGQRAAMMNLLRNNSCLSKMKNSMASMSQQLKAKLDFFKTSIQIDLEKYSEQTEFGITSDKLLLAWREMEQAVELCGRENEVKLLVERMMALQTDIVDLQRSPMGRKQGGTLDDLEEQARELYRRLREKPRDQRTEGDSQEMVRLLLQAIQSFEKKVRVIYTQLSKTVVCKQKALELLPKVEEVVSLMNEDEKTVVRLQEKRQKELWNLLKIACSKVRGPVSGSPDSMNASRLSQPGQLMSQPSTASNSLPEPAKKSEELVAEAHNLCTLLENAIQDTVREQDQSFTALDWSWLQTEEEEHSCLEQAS
# Summary of the method: as §1
# [14] = biological target: ROCK1 (Homo sapiens, UniProt Q13464)
# Summary of the method: as §1
# [15] = biological target: MAPK14 (p38 alpha) (Homo sapiens, UniProt Q16539)
# MAPK14 (p38 alpha), sequence (Q16539 whole entry, species assumed): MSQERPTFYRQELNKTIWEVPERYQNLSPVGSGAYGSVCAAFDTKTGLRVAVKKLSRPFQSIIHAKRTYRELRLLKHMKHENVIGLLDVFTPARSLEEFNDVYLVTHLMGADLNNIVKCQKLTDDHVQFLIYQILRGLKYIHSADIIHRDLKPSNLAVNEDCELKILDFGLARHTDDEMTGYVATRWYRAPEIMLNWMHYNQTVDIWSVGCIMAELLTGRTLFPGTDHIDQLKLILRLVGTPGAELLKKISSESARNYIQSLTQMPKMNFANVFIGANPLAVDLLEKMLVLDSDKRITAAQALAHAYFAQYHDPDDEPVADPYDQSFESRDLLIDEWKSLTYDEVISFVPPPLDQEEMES
# Summary of the method: as §1
# [16] = biological target: RPS6KB1 (p70S6K) (Homo sapiens, UniProt P23443)
# RPS6KB1 (p70S6K), sequence (P23443 whole entry, species assumed): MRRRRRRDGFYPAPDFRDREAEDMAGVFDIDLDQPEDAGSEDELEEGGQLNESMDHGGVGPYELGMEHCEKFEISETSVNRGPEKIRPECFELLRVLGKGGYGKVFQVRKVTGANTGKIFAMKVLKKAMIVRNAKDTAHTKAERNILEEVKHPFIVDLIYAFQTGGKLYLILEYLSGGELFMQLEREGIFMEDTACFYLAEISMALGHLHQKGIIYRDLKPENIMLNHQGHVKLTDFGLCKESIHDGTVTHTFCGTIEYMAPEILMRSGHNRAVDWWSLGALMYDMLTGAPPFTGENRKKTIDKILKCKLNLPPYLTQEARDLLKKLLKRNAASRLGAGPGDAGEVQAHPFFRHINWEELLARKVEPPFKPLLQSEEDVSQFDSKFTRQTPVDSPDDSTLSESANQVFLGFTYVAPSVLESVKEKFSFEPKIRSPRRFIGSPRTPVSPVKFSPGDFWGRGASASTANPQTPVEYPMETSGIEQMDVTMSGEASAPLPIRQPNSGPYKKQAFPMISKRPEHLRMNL
# Summary of the method: as §1
inhibition at 10 µM [1] [%],inhibition at 10 µM [2] [%],inhibition at 10 µM [3] [%],inhibition at 10 µM [4] [%],inhibition at 10 µM [5] [%],inhibition at 10 µM [6] [%],inhibition at 10 µM [7] [%],inhibition at 10 µM [8] [%],inhibition at 10 µM [9] [%],inhibition at 10 µM [10] [%],inhibition at 10 µM [11] [%],inhibition at 10 µM [12] [%],inhibition at 10 µM [13] [%],inhibition at 10 µM [14] [%],inhibition at 10 µM [15] [%],inhibition at 10 µM [16] [%],Compound
1,9,-2,3,21,-2,-5,15,17,5,-2,21,-10,18,-3,15,Nc1ncnc2c1ncn2[C@@H]1O[C@H](COC(=O)NCCCc2nc3ccccc3[nH]2)[C@@H](O)[C@H]1O [Compound C1]
4,-1,0,8,0,0,2,7,17,-9,7,0,-13,-7,-1,0,Nc1ncnc2c1ncn2[C@@H]1O[C@H](COC(=O)NCCN2CCCC2=O)[C@@H](O)[C@H]1O [Compound C22]
-1,9,-3,6,-6,3,5,1,-2,-19,3,3,-8,-10,-4,3,Nc1ncnc2c1ncn2[C@@H]1O[C@H](COC(=O)N2CCC[C@H]2CO)[C@@H](O)[C@H]1O [Compound C9]
1,0,-6,18,-1,0,3,6,17,8,8,9,-8,-12,-6,8,Nc1ncnc2c1ncn2[C@@H]1O[C@H](COC(=O)N2CCN(CCc3ccccc3)CC2)[C@@H](O)[C@H]1O [Compound C26]
4,-5,-2,15,-3,8,5,2,-6,2,5,0,-9,-6,-4,13,Nc1ncnc2c1ncn2[C@@H]1O[C@H](COC(=O)N2CCS(=O)(=O)CC2)[C@@H](O)[C@H]1O [Compound C100]
10,16,2,2,-2,2,2,7,68,5,8,9,-8,-8,20,0,CS(=O)(=O)N1CC2(CCN(C(=O)OC[C@H]3O[C@@H](n4cnc5c(N)ncnc54)[C@H](O)[C@@H]3O)CC2)c2ccccc21 [Compound C98]
4,11,-4,-4,1,-1,-5,10,1,11,11,13,-11,-1,18,16,Nc1ncnc2c1ncn2[C@@H]1O[C@H](COC(=O)N2CCC(Cc3ccc(F)cc3)C2)[C@@H](O)[C@H]1O (some centres unmarked) [Compound C66]
8,0,2,4,-2,4,7,1,-8,-13,3,4,-10,-7,0,-1,CN(C)CCNC(=O)OC[C@H]1O[C@@H](n2cnc3c(N)ncnc32)[C@H](O)[C@@H]1O [Compound C85]
4,1,-6,6,-4,8,4,4,-5,0,4,1,-12,-3,4,6,N#CCCN1CCN(C(=O)OC[C@H]2O[C@@H](n3cnc4c(N)ncnc43)[C@H](O)[C@@H]2O)CC1 [Compound C70]
6,-1,5,7,4,3,5,3,17,-7,7,6,-6,2,-1,3,CC(C)N1CCC(NC(=O)OC[C@H]2O[C@@H](n3cnc4c(N)ncnc43)[C@H](O)[C@@H]2O)CC1 [Compound C19]
7,7,-3,8,10,4,2,14,8,-5,11,20,-11,-2,6,5,Nc1ncnc2c1ncn2[C@@H]1O[C@H](COC(=O)N[C@@H]2CCN(Cc3ccccc3)C2)[C@@H](O)[C@H]1O [Compound C10]
